From PMC6273487, “Characterisation of the Broadly-Specific O-Methyl-transferase JerF from the Late Stages of Jerangolid Biosynthesis” (Molecules, 2016)

Biological target: T1, JerF (Sorangium cellulosum, UniProt A1YBT9)
T1 construct: codon-optimised full-length gene in pCOLD-I, N-terminal His6 tag, expressed in E. coli BL21 (DE3), cell-free extract (not purified)
Assay: HPLC-MS of O-methylated product after bioconversion with cell-free extract
Type: biochemical
Settings: 5 mM MgCl2, 0.25 mM substrate

T1 sequence (A1YBT9 entry or part of it): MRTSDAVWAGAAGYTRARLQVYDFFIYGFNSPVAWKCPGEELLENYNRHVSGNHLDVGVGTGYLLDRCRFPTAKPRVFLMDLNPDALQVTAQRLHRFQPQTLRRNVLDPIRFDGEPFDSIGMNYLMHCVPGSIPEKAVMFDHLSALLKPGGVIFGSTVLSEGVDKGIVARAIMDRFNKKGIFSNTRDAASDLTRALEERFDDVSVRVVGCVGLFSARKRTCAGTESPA

| Compound | HPLC-MS of O-methylated product after bioconversion with cell-free extract (SAM tosylate 4.18 mM, 25 mM HEPES, pH 7.5, 28 °C, 20 h) | HPLC-MS of O-methylated product after bioconversion with cell-free extract (SAM tosylate 0.97 mM, 40 mM Tris HCl, pH 8.8, 28 °C, 16 h, empty-vector and heat-denatured lysate controls run) |
| --- | --- | --- |
| CC(C)/C=C/C1CC(=O)C(C)C(=O)O1 (racemic) [rac-14e, (E)-3-Methyl-6-(3-methylbut-1-en-1-yl)dihydro-2H-pyran-2,4(3H)-dione] | Full conversion was reproducibly obtained for compounds rac-14b, rac-14c, rac-14e and rac-14f | – |
| C/C=C/C1CC(=O)C(C)C(=O)O1 (racemic) [rac-14d, (E)-3-Methyl-6-(prop-1-en-1-yl)dihydro-2H-pyran-2,4(3H)-dione] | – | rac-14d was almost completely converted into the respective O-methylated product mixture rac-15d |
